# Data from patent US4017596A, “Radiopharmaceutical chelates and method of external imaging” (priority 1975, dated 1977).
# Columns and labels:
# [1] = Biodistribution in mice after intravenous injection (organ counting in scintillation counter); type: in vivo; conditions: 25 g mice; i.v.; 60 minutes
# [2] = Scintillation camera imaging and blood level in dogs after intravenous injection; conditions: dog
# Method: One animal was selected for imaging at various time intervals utilizing a scintillation camera. […] Sufficiet cholecystokinin was injected into the dog intravenously to effect contraction of the gall bladder. […] The images were obtained using a gamma scintillation camera (Pho Gamma III) and a parallel hole high sensitivity collimator.
# [3] = Imaging in dog before and after plasma loading with bromosulphthalein (BSP), compared with I-131 Rose Bengal
"time to leaving the gall bladder after cholecystokinin injection ([2]; after i.v. cholecystokinin, FIG. 4 Frame E) [min]","time at which the liver is clearly identified ([2]; i.v. 4 mCi, FIG. 3 Frame A) [min]","uptake by the liver ([2]; i.v. 4 mCi, anterior imaging, FIG. 3)","injected dose remaining in the blood ([2]; i.v. 4 mCi, at 10 minutes)","injected dose remaining in the blood (second value of ""10% and 3% ... respectively"") ([2]; i.v. 4 mCi, only ""10 minutes"" printed, second time missing) [%]",Structure (SMILES),injected dose in the intestines [1] [%],injected dose in the liver [1] [%],"clearance from the liver / accumulation in gall bladder ([2]; i.v. 4 mCi, images at 25, 40 and 50 minutes)","effect of BSP loading on plasma clearance or imaging characteristics ([3]; dog, BSP levels of 4-7 mg percent to simulate hyperbilirubinemia)","image quality compared to I-131 Rose Bengal ([3]; same dog, FIG. 5)",injected dose in the blood [1] [%]
–,–,–,–,–,"Oc1cccc2cccnc12 [Example 8, technetium-99m chelate of 8-hyroxyquinoline]",20,40,–,–,–,–
≤ 1,5,rapid uptake by the liver,Less than 10%,< 3,"Cc1cccc(C)c1NC(=O)CN(CC(=O)O)CC(=O)O (99mTc complex, metal not drawn) [Example 2]",–,–,clearance from the liver is demonstrated with progressive accumulation of the radiopharmaceutical in the gall bladder,did not substantially alter the plasma clearance or imaging characteristics,much better quality,–
–,–,–,–,–,"Oc1cccc2cccnc12 [Example 9, gallium-67 chelate of 8-hydroxyquinoline]",13,25,–,–,–,20
